Measurements: US20220289751A1, “COMPOUND HAVING KDM5 INHIBITORY ACTIVITY AND PHARMACEUTICAL USE THEREOF” (ONO PHARMACEUTICAL CO., LTD., priority 2019, published 2022)
Like-named read-outs stand apart in the source and are kept apart here.

Experiments:
[1] = Permeability in wild type MDCK cell lines (MDCK-WT); type: in vitro ADME; conditions: dog, MDCK, pH 7.4, apical to basal, 10 μM test compound
Description: Wild type MDCKII cells were seeded onto an apical chamber 3 days prior to running the assay at a density of 2.3×10^5 cells per well. The integrity of cell monolayers was evaluated by examining the permeability of lucifer yellow assay using a Spectramax Gemini XS with excitation and emission at 426 nm and 538 nm respectively. Permeation of Lucifer Yellow should be ≤10×10^−6 cm/s for the experimental data to be accepted. The cell monolayers were preincubated in transport buffer (HBSS with CaCl2 and MgCl2)+25 mM HEPES, adjust to pH 7.4) at 37° C. or more than 20 min. Transport experiment was initiated by adding test compound solution (10 μM) to the apical chamber. Samples were obtained from basal chamber at 60 min, followed by addition of ice-cold acetonitrile containing internal standard. LC-MS/MS analysis was conducted as specified below. Standard calibration samples were prepared using the same matrix and analysed in the same manner. [table] […] Papp(cm/s)=(dCB/dt)×VB/(A×CA) dCB/dt is the slope of the cumulative concentration in basal side versus time VB is the volume of the basal compartment A is the area of the membrane surface area CA is the initial concentration in apical side

KDM5A protein = molecular target: T1, KDM5A protein (Homo sapiens, UniProt P29375); test: Biochemical KDM5A inhibition assay (HTRF)
T1 construct: purchased BPS Bioscience 50110
T1 sequence (P29375 whole entry): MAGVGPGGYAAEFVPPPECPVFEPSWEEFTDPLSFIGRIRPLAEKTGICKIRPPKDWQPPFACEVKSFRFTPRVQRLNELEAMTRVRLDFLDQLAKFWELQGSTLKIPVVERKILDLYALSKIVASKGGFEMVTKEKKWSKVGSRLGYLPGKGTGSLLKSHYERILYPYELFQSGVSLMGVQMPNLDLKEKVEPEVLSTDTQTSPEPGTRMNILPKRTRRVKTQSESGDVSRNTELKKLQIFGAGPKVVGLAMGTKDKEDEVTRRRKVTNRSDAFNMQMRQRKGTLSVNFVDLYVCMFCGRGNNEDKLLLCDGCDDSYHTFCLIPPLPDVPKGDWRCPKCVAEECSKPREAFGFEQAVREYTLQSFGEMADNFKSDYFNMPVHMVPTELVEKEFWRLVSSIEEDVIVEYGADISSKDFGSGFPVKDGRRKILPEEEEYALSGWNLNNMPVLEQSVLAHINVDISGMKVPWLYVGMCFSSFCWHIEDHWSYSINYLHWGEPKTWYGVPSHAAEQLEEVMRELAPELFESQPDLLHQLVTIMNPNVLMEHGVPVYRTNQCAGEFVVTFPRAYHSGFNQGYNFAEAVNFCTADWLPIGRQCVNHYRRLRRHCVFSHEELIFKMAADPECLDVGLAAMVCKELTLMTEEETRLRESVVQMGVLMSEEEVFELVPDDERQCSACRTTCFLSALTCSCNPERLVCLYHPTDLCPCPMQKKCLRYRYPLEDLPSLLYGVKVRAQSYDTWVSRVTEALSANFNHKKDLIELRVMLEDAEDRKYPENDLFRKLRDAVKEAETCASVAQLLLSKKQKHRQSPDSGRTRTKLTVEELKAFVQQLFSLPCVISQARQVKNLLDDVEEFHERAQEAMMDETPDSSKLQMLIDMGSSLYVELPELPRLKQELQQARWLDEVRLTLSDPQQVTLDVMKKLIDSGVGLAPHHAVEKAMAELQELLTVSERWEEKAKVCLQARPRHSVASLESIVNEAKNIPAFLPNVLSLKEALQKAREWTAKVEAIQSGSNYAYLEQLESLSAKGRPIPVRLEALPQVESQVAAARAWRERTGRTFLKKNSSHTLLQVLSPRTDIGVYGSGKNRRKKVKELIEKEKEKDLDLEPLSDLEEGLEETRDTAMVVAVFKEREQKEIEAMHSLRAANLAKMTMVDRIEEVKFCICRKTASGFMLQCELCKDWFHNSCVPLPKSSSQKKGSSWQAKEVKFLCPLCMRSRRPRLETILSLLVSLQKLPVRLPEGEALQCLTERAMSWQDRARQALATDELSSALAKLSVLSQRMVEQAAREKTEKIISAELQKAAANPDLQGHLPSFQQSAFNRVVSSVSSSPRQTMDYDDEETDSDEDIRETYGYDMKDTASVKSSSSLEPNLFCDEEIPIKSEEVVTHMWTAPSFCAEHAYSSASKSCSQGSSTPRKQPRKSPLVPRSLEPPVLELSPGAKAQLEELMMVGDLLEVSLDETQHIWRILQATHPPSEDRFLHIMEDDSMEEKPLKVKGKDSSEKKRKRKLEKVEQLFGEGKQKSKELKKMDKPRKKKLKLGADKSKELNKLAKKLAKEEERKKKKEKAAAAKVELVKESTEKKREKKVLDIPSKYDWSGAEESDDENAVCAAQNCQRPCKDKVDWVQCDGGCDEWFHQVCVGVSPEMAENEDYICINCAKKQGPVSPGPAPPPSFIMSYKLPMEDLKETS
Description: Using 384-well white ProxiPlates (PerkinElmer), representative compounds were characterized for their inhibition of KDM5A using HTRF® technology (Cisbio Bioassays). Briefly, the test compounds, reference compounds, and DMSO control (typical compound concentration range 300 pM-10 μM, final assay concentration (FAC) of DMSO 0.5%) were added to 384-well plate by the Echo® acoustic dispensing platform (Labcyte). Three (3) μ1 of KDM5A protein (BPS Bioscience, Cat #50110)(10 or 20 nM FAC) in assay buffer (50 mM MES, 50 mM NaCl, 2 mM ascorbic acid, 0.01% v/v Tween 20, pH 6.5) was added to wells and plates were incubated for 10 minutes at room temperature. Then, 3 μl of biotin-labelled H3K4-me3 substrate (Anaspec Cat #AS-64357-1; 100 nM FAC), alpha-ketoglutaric acid ([…]) and Fe(II)SO4 (FAC 100 μM) in assay buffer was added and plates were incubated for 60 minutes at room temperature. The reaction was stopped with the addition of 6 μl of anti-H3-[…]-Eu(K) (Cisbio Bioassays Cat #61KA2KAE; 0.025 μg/ml FAC)+Streptavidin XL665 (Cisbio Bioassays Cat #610SAXLA; 0.5 μg/ml FAC) in HTRF detection buffer (Cisbio Bioassays Cat #62SDBRDD). The mixture was incubated for 90 minutes at room temperature before 340 nm excitation and measurement of dual emission at 620 nm and 665 nm. The raw data (a 665 nm and a 620 nm reading from each well) for individual assay plates were analyzed. The ratio of emissions was calculated using the following calculation: Ratio=(665 nm emission/620 nm emission)*10000. Using DMSO control (maximum response or 0% inhibition) and 1 μM reference control compound (minimum response or 100% inhibition), percentage inhibition values for each well were calculated using the median values of the minimum and maximum control wells and the following calculation: % Inhibition=(Well ratio-max control ratio)/(min control ratio-max control ratio)*100. Compound IC50 values were calculated from graphs of % inhibition plotted against compound concentration, using a four parameter curve fit.

[2] = 20 nM enzyme concentration, read-out: IC50 value
[3] = comparative compounds, read-out: permeabilities in MDCK-WT of comparative compound
[4] = comparative compounds, enzyme concentration not stated, read-out: IC50 values (μM) of comparative compound

| Papp A→B at 60 min, 10 μM ([1]; read-out: MDCK-WT (Papp)) | IC50 (KDM5A protein; [2]) | Compound | further results |
| --- | --- | --- | --- |
| 9 ×10⁻⁶ cm/s |  | CC(c1ccccc1)c1cc(C(=O)N2CC3(C2)CN(C(=O)C2CC2)C3)n[nH]1 (single isomer, unassigned) [EXAMPLE 89, (6-(Cyclopropanecarbonyl)-2,6-diazaspiro[3.3]heptan-2-yl)(5-(1-phenylethyl)-1H-pyrazol-3-yl)methanone] |  |
|  | 0.2 µM | CC(C)c1cc(C(=O)N2CC(NC(=O)C3CC3)C2)n[nH]1 [EXAMPLE 80, N-(1-(5-Isopropyl-1H-pyrazole-3-carbonyl)azetidin-3-yl)cyclopropanecarboxamide] |  |
|  | 0.1 µM | CC(C)n1cnc(C(=O)N2CC3(C2)CN(C(=O)C2CC2)C3)c1 [EXAMPLE 81, (6-(Cyclopropanecarbonyl)-2,6-diazaspiro[3.3]heptan-2-yl)(1-isopropyl-1H-imidazol-4-yl)methanone] |  |
|  |  | CC(C)c1c(-c2cnn(CC3CC3)c2)[nH]c2c(C#N)cnn2c1=O [5-(1-(cyclopropylmethyl)-1H-pyrazol-4-yl)-6-isopropyl-7-oxo-4,7-dihydropyrazolo[1,5-a]pyrimidine-3-carbonitrile, reference compound] | Papp A→B at 60 min, 10 μM [1, 3]: 5.6 ×10⁻⁶ cm/s; IC50 (KDM5A protein; [4]): 0.005 µM |
|  | 0.05 µM | CC(=O)NCCn1cc(-c2nn3c(-c4cn[nH]c4)cnc3c(=O)n2C(C)C)cn1 [EXAMPLE 47, N-(2-(4-(3-isopropyl-4-oxo-7-(1H-pyrazol-4-yl)-3,4-dihydroimidazo[2,1-f][1,2,4]triazin-2-yl)-1H-pyrazol-1-yl)ethyl)acetamide] |  |
| 19 ×10⁻⁶ cm/s |  | CC(C)c1cc(C(=O)N2CC3(CON(C(=O)C(C)(C)C)C3)C2)n[nH]1 [EXAMPLE 132, 1-[2-(5-Isopropyl-1H-pyrazole-3-carbonyl)-6-oxa-2,7-diazaspiro[3.4]octan-7-yl]-2,2-dimethyl-propan-1-one] |  |
|  | 1 µM | CC(C)n1c(N(C)CCC2CCCO2)nn2c(-c3cn[nH]c3)cnc2c1=O (single isomer, unassigned) [EXAMPLE 62, 3-Isopropyl-2-(methyl(2-(tetrahydrofuran-2-yl)ethyl)amino)-7-(1H-pyrazol-4-yl)imidazo[2,1-f][1,2,4]triazin-4(3H)-one] |  |
|  |  | CC(C)c1cc(C(=O)N2CC[C@@H](NC(=O)C3CC3)C2)[nH]n1 [(R)—N-(1-(3-isopropyl-1H-pyrazole-5-carbonyl)pyrrolidin-3-yl)cyclopropane carboxamide, reference compound] | Papp A→B at 60 min, 10 μM [1, 3]: 4.9 ×10⁻⁶ cm/s; IC50 (KDM5A protein; [4]): 0.02 µM |
|  | 0.03 µM | CC(C)n1c(-c2cnn(CC3CC3)c2)nn2c(-c3cnc[nH]3)cnc2c1=O [EXAMPLE 19, 2-(1-(Cyclopropylmethyl)-1H-pyrazol-4-yl)-7-(1H-imidazol-5-yl)-3-isopropylimidazo[2,1-f][1,2,4]triazin-4(3H)-one] |  |
|  | 0.008 µM | CC(C)c1cc(C(=O)N2CC3(C2)CN(C(=O)c2nn(C)cc2F)C3)n[nH]1 [EXAMPLE 126, [2-(4-Fluoro-1-methyl-pyrazole-3-carbonyl)-2,6-diazaspiro[3.3]heptan-6-yl]-(5-isopropyl-1H-pyrazol-3-yl)methanone] |  |
| 25 ×10⁻⁶ cm/s | 0.04 µM | CC(C)n1c(-c2cnn(CC3CC3)c2)nn2c(-c3cn[nH]c3)cnc2c1=O [EXAMPLE 20, 2-(1-(Cyclopropylmethyl)-1H-pyrazol-4-yl)-3-isopropyl-7-(1H-pyrazol-4-yl)imidazo[2,1-f][1,2,4]triazin-4(3H)-one] |  |
|  | 0.05 µM | CC(C)n1c(-c2cccs2)nn2c(-c3cn[nH]c3)cnc2c1=O [EXAMPLE 27, 3-Isopropyl-7-(1H-pyrazol-4-yl)-2-(thiophen-2-yl)imidazo[2,1-f][1,2,4]triazin-4(3H)-one] |  |
| 66 ×10⁻⁶ cm/s | 0.4 µM | CC(C)c1c(-c2ccccc2)[nH]n2c(C#N)cnc2c1=O [EXAMPLE 95, 7-Isopropyl-8-oxo-6-phenyl-5,8-dihydroimidazo[1,2-b]pyridazine-3-carbonitrile] |  |
| 16 ×10⁻⁶ cm/s |  | O=C(c1cc(C2CCCCC2)[nH]n1)N1CC2(C1)CN(C(=O)C1CC1)C2 [EXAMPLE 73, (5-Cyclohexyl-1H-pyrazol-3-yl)(6-(cyclopropanecarbonyl)-2,6-diazaspiro[3.3]heptan-2-yl)methanone] |  |
| 37 ×10⁻⁶ cm/s | 0.3 µM | CC(C)n1c(-c2cnn(CC3CC3)c2)nc2c(C(N)=O)ccnc2c1=O [EXAMPLE 30, 2-(1-(Cyclopropylmethyl)-1H-pyrazol-4-yl)-3-isopropyl-4-oxo-3,4-dihydropyrido[3,2-d]pyrimidine-8-carboxamide] |  |
|  | 0.4 µM | CC(C)c1cc(C(=O)c2cnn3c(=O)c(C(C)C)c(-c4ccccc4)n(C)c23)n[nH]1 [EXAMPLE 68, 6-Isopropyl-3-(5-isopropyl-1H-pyrazole-3-carbonyl)-4-methyl-5-phenylpyrazolo[1,5-a]pyrimidin-7 (4H)-one] |  |
|  | 0.09 µM | CC(=O)NCCn1cc(-c2nn3c(-c4c[nH]cn4)cnc3c(=O)n2C(C)C)cn1 [EXAMPLE 121, N-(2-(4-(7-(1H-Imidazol-4-yl)-3-isopropyl-4-oxo-3,4-dihydroimidazo[2,1-f][1,2,4]triazin-2-yl)-1H-pyrazol-1-yl)ethyl)acetamide] |  |
| 23 ×10⁻⁶ cm/s | 0.04 µM | CC(C)n1c(N2CC(c3ccccc3)C2)nn2c(-c3cnc[nH]3)cnc2c1=O [EXAMPLE 8, 7-(1H-imidazol-5-yl)-3-isopropyl-2-(3-phenylazetidin-1-yl)imidazo[2,1-f][1,2,4]triazin-4(3H)-one] |  |
| 20 ×10⁻⁶ cm/s |  | CC(C)c1cc(C(=O)N2CC3(C2)CN(C(=O)c2cccs2)C3)n[nH]1 [EXAMPLE 99, (5-Isopropyl-1H-pyrazol-3-yl)(6-(thiophene-2-carbonyl)-2,6-diazaspiro[3.3]heptan-2-yl)methanone] |  |
| 20 ×10⁻⁶ cm/s | 0.2 µM | CC(C)n1c(-c2cccs2)nn2c(-c3cnc[nH]3)cnc2c1=O [EXAMPLE 26, 7-(1H-Imidazol-5-yl)-3-isopropyl-2-(thiophen-2-yl)imidazo[2,1-f][1,2,4]triazin-4(3H)-one] |  |
| 64 ×10⁻⁶ cm/s | 0.2 µM | CC(C)n1c(-c2ccccc2)nc2c(C(N)=O)ccnc2c1=O [EXAMPLE 31, 3-isopropyl-4-oxo-2-phenyl-3,4-dihydropyrido[3,2-d]pyrimidine-8-carboxamide] |  |
|  | 0.03 µM | CCNC(=O)N1CC2(C1)CN(C(=O)c1cc(C(C)C)[nH]n1)C2 [EXAMPLE 41, N-Ethyl-6-(5-isopropyl-1H-pyrazole-3-carbonyl)-2,6-diazaspiro[3.3]heptane-2-carboxamide] |  |
| 10 ×10⁻⁶ cm/s | 0.04 µM | CC(C)n1c(-c2ccc3c(ccn3C)c2)nn2c(-c3cn[nH]c3)cnc2c1=O [EXAMPLE 21, 3-Isopropyl-2-(1-methyl-1H-indol-5-yl)-7-(1H-pyrazol-4-yl)imidazo[2,1-f][1,2,4]triazin-4(3H)-one] |  |
| 8 ×10⁻⁶ cm/s |  | O=C(NC1CN(C(=O)c2cc(C3CC3)[nH]n2)C1)C1CC12CC2 (single isomer, unassigned) [EXAMPLE 104, N-(1-(5-cyclopropyl-1H-pyrazole-3-carbonyl)azetidin-3-yl)spiro[2.2]pentane-1-carboxamide] |  |
|  | 2.9 µM | Cc1ccc(-n2cc(-c3cnc4c(=O)n(C(C)C)c(C)nn34)cn2)nc1 [EXAMPLE 67, 3-Isopropyl-2-methyl-7-(1-(5-methylpyridin-2-yl)-1H-pyrazol-4-yl)imidazo[2,1-f][1,2,4]triazin-4(3H)-one] |  |
|  | 0.03 µM | CC(C)c1cc(C(=O)N2CC3(C2)CN(C(=O)C2(C)CC2)C3)n[nH]1 [EXAMPLE 96, (5-Isopropyl-1H-pyrazol-3-yl)(6-(1-methylcyclopropane-1-carbonyl)-2,6-diazaspiro[3.3]heptan-2-yl)methanone] |  |
